In PubChem BioAssay (NCI) one finds TGI and GI50 data, which are given here for twelve compounds.

Test systems include SNB-19 CNS; XF 498 CNS; MALME-3M melanoma; SK-OV-3 ovarian; RXF 393 renal; HOP-62 NSCLC; COLO 205 colon; DMS 114 small cell lung; DMS 273 small cell lung; SK-MEL-28 melanoma; NCI-H23 lung; MDA-N.
What all share (assay): inhibition of tumour cell growth, NCI panel, 48 h

Values joined by “and” are separate entries in the source; they are usually repeats but may differ in a detail not shown here. Equal entries are not always repeated.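 96-well plates; 48 h exposure; 5 concentrations. Endpoints by linear interpolation between flanking doses. Not reached: highest tested concentration assigned. Here, GI50 denotes the concentration required for 50% inhibition of growth. TGI is the concentration that stops growth completely.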

As to `CC1[C@@]2(O[C@@H]3C=C4C5CCC6Cc7nc8c(nc7C[C@@]6(C)C5C[C@H](O)[C@@]4(C)[C@]13O)CC1CCc3c(cc4c5c3C(O)C[C@H]5[C@@H](C)C3(O4)OC(C)(C)CC3O)[C@]1(C)C8)O[C@@](C)(CO)C[C@@H]2O` (some centres undefined), the TGI is greater than 3.72 µM with SNB-19 CNS; 0.248 µM in the assay on XF 498 CNS; 2.22 µM in the assay on MALME-3M melanoma; 0.976 µM with SK-OV-3 ovarian; 0.153 µM in the assay on RXF 393 renal; 0.263 µM with HOP-62 NSCLC. The TGI in the assay on COLO 205 colon was 1.07 µM; in the assay with DMS 114 small cell lung, greater than 3.72 µM; in the assay on DMS 273 small cell lung, 0.117 µM.
Regarding `CN(C)CCNC(=O)c1cccc2c1C(=O)c1ccccc1C2=O`, the TGI is greater than 100 µM in the assay with SNB-19 CNS; greater than 100 µM with SK-MEL-28 melanoma; greater than 100 µM in the assay on XF 498 CNS; 28.1 µM in the assay with MALME-3M melanoma; greater than 100 µM in the assay on SK-OV-3 ovarian; greater than 100 µM with RXF 393 renal. In addition, the TGI was greater than 31.6 µM in the assay on HOP-62 NSCLC; 34.2 µM in the assay with COLO 205 colon; 50 µM in the assay with NCI-H23 lung; 32.8 µM with DMS 114 small cell lung; 56.6 µM in the assay on DMS 273 small cell lung.
Take `O=C1/C(=C/c2cccc([N+](=O)[O-])c2)N=C(c2ccccc2)N1c1nc2ccc(Sc3ccccc3)cc2[nH]1`: the TGI in the assay on SNB-19 CNS was greater than 100 µM; in the assay on SK-MEL-28 melanoma it was greater than 100 µM; in the assay on MDA-N, 33.3 µM; with MALME-3M melanoma, greater than 100 µM; with SK-OV-3 ovarian, greater than 100 µM; with RXF 393 renal it was greater than 100 µM. Besides, the TGI was greater than 100 µM in the assay with HOP-62 NSCLC, 96.8 µM with COLO 205 colon and greater than 100 µM with NCI-H23 lung.
Turning to `CC(C)(C)OC(=O)NC(CSCc1ccc(C(=O)c2ccccc2)cc1)C(=O)N1CCN(CCCCN2c3ccccc3Sc3cc(N=[N+]=[N-])ccc32)CC1` (centres undefined), the TGI in the assay with SNB-19 CNS, in the assay on SK-MEL-28 melanoma, in the assay with MDA-N, in the assay on MALME-3M melanoma, in the assay with SK-OV-3 ovarian and with RXF 393 renal was greater than 100 µM each time. The TGI in the assay with HOP-62 NSCLC, in the assay with COLO 205 colon and in the assay with NCI-H23 lung was greater than 100 µM each time.
On to `COC(=O)[C@@]12CSC[C@]1(C(=O)OC)N[C@@H](c1ccccc1O)C2`, for which the TGI in the assay with SNB-19 CNS, with SK-MEL-28 melanoma, in the assay with MDA-N, with MALME-3M melanoma, in the assay with SK-OV-3 ovarian and in the assay with RXF 393 renal was greater than 100 µM throughout. For the same compound, the TGI in the assay with HOP-62 NSCLC, in the assay with COLO 205 colon and in the assay with NCI-H23 lung was greater than 100 µM in each case.
Consider `O=[N+]([O-])c1ccc2c(c1)nc1n2C(c2c(F)cccc2F)SC1` (centres undefined), for which the TGI in the assay on SNB-19 CNS, in the assay with SK-MEL-28 melanoma, in the assay on MDA-N, with MALME-3M melanoma, in the assay on SK-OV-3 ovarian and in the assay on RXF 393 renal was greater than 100 µM each time. The TGI in the assay on HOP-62 NSCLC, in the assay with COLO 205 colon and in the assay with NCI-H23 lung was greater than 100 µM throughout.
Regarding `Nc1cc(OCC2CCCCC2)nc(N)n1`, the TGI with SNB-19 CNS, in the assay with SK-MEL-28 melanoma, in the assay with MDA-N, in the assay with MALME-3M melanoma, with SK-OV-3 ovarian and with RXF 393 renal was greater than 100 µM in each case. The TGI in the assay on HOP-62 NSCLC, with COLO 205 colon and with NCI-H23 lung was greater than 100 µM in each case.
For `O=C(CCCc1cccc2[nH]c3c(c12)CN(Cc1ccccc1)CC3)c1ccc(F)cc1`, the TGI in the assay on SNB-19 CNS, in the assay with SK-MEL-28 melanoma, in the assay with MDA-N, with MALME-3M melanoma, with SK-OV-3 ovarian and in the assay on RXF 393 renal was greater than 100 µM throughout. Moreover, the TGI was greater than 52.6 µM in the assay with HOP-62 NSCLC, 31.4 µM in the assay with COLO 205 colon and greater than 52.3 µM in the assay on NCI-H23 lung.
For the compound `COc1ccc2[nH]c3ccc4cc[n+](CCN5CCC(C6CCN(CC[n+]7ccc8ccc9[nH]c%10ccc(OC)cc%10c9c8c7)CC6)CC5)cc4c3c2c1`, the GI50 is greater than 50 µM with SNB-19 CNS; greater than 50 µM in the assay on SK-MEL-28 melanoma; 33.2 µM in the assay with SK-OV-3 ovarian; 38.1 µM with RXF 393 renal; 34.4 µM in the assay on HOP-62 NSCLC; 4.46 µM in the assay with NCI-H23 lung. The TGI with SNB-19 CNS was greater than 70.9 µM; in the assay with SK-MEL-28 melanoma, greater than 50 µM; in the assay on XF 498 CNS it was greater than 75.9 µM; in the assay on MDA-N it was 50 µM; with MALME-3M melanoma, 50 µM; in the assay with SK-OV-3 ovarian it was 45.8 µM and 20.6 µM. The TGI was 50 µM and 10.8 µM with RXF 393 renal; 50 µM and > 100 µM in the assay with HOP-62 NSCLC; greater than 50 µM in the assay with COLO 205 colon; greater than 100 µM in the assay on NCI-H23 lung; 4.08 µM in the assay with DMS 114 small cell lung; greater than 100 µM in the assay with DMS 273 small cell lung.
In the case of `ClCCCN1CCN(CCCl)CC1`, the GI50 with SNB-19 CNS is 99.1 µM; with NCI-H23 lung, 19.5 µM. The TGI in the assay with SNB-19 CNS is greater than 1000 µM; in the assay on SK-MEL-28 melanoma, greater than 1000 µM; in the assay with XF 498 CNS, 147 µM; in the assay with MDA-N, 742 µM; in the assay with MALME-3M melanoma it was 390 µM; with SK-OV-3 ovarian it was 166 µM. The TGI turned out to be 439 µM in the assay on RXF 393 renal; 168 µM in the assay with HOP-62 NSCLC; 468 µM in the assay on COLO 205 colon; 586 µM in the assay with NCI-H23 lung; 203 µM in the assay with DMS 114 small cell lung; 475 µM in the assay on DMS 273 small cell lung.
Turning to `COc1ccc2c(c1)/C(=C\c1c(Cl)nc3n1CCS3)C(=O)N2`, the TGI was greater than 100 µM in the assay on SNB-19 CNS; greater than 100 µM with SK-MEL-28 melanoma; 6.54 µM in the assay on MDA-N; greater than 100 µM in the assay on MALME-3M melanoma; 66.9 µM in the assay on SK-OV-3 ovarian; 9.91 µM with RXF 393 renal. For the same compound, the values for the TGI with HOP-62 NSCLC, in the assay on COLO 205 colon and with NCI-H23 lung were greater than 100 µM, 10.9 µM and 72.2 µM, respectively.
With `CCOC(CBr)OC1C(=O)OCC1(C)C` (centres undefined), the TGI in the assay on SNB-19 CNS, in the assay with SK-MEL-28 melanoma, in the assay with MDA-N, with MALME-3M melanoma, in the assay with SK-OV-3 ovarian and with RXF 393 renal was greater than 100 µM each time. In addition, the TGI in the assay with HOP-62 NSCLC, in the assay with COLO 205 colon and with NCI-H23 lung was greater than 100 µM throughout.
